Measurements from ChEMBL document CHEMBL4393661, “PRODRUGS FOR NITROREDUCTASE BASED CANCER THERAPY- 2: Novel amide/Ntr combinations targeting PC3 cancer cells” (Eur J Med Chem, 2019).

Molecular target: T1, Putative nitroreductase (Staphylococcus saprophyticus subsp. saprophyticus (strain ATCC 15305 / DSM20229 / NCIMB 8711 / NCTC 7292 / S-41)) (UniProt Q4A0P1)
T1 sequence (whole entry): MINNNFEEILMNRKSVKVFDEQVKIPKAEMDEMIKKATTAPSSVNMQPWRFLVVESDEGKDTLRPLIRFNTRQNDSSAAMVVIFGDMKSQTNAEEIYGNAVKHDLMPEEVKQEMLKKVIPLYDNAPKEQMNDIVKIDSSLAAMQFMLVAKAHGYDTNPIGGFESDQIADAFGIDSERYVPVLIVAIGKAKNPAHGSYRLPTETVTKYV
Assay: Substrate activity at Staphylococcus saprophyticus nitroreductase assessed as ratio of Kcat/Km up to 80 mM using NADH as cofactor relative to CB1954/NfsB

In the case of `NC(=O)c1cc(N(CCCl)CCCl)c([N+](=O)[O-])cc1[N+](=O)[O-]`, the fold change (FC) is reported as 1.67.

`NC(=O)c1cc(N2CC2)c([N+](=O)[O-])cc1[N+](=O)[O-]` gave a fold change (FC) of 0.38.

`CC(=O)Nc1cc([N+](=O)[O-])cc([N+](=O)[O-])c1` showed a fold change (FC) of 17.6.

Compound `CCN(C(C)=O)c1cc([N+](=O)[O-])cc([N+](=O)[O-])c1` has a fold change (FC) of 20.9.
